Results reported in PMC7930822, “Phase I Trial to Evaluate the Tolerance, Pharmacokinetics and Efficacy of the Broad-Spectrum ErbB Family Inhibitor Larotinib Mesylate in Patients With Advanced Solid Tumors” (Frontiers in Pharmacology, 2021).
Structures can show the parent of a compound that is named as a salt. Where two headings read alike, the source gives them in different places.

Experiment: phase I plasma pharmacokinetics (non-compartmental, LC-MS/MS)
Assay type: in vivo, human
Conditions: for AUC(0-t) / AUC(0-inf) / Cmax / half-life / Tmax / Vd/F: human, plasma, po
Procedure: This was a phase I, single-center, open-label, dose-escalation study conducted at First Hospital of Jilin University, China (registration no.: ChiCTR-OPC-15007153 registered at http://www.chictr.org.cn). Larotinib mesylate hard capsules were produced and supplied by Sunshine Lake Pharma Co., Ltd (Guangdong Province, China) in different unit doses of […] under GMP condition. Seven dose levels were designed in the study: 50, 100, 150, 220, 300, 350, and 400 mg with administration stages labeled cycle 0, cycle 1, and subsequent treatment cycles. Patients received an oral single dose of larotinib mesylate after fasting during a 6-days cycle 0 to evaluate the tolerance and pharmacokinetic characteristics. After cycle 0, larotinib mesylate was continuously administered once daily for 28 days in cycle 1, and the tolerance and pharmacokinetic characteristics of multiple doses were evaluated (Figure 2). The patients who […] disease control (complete response [CR], partial response [PR], or stable disease [SD]) at the end of cycle one were permitted to participate in the subsequent 28-days treatment cycles until progressive disease (PD) or intolerance was observed.
Blood samples (4 ml) for pharmacokinetic analyses were collected in tubes containing K2EDTA anticoagulant. Blood samples were centrifuged at 3,000 rpm for 10 min at 4°C and stored at –80°C until liquid chromatography-mass spectrophotometry (LC-MS/MS) analysis. Urine and fecal samples were collected only when patients were given the150-mg and 220-mg dose levels at sampling time intervals of 0–4, 4–8, 8–12, 12–24, 24–48, 48–72, 72–96 and 96–120 h in cycle 0.
Linear mixed effects model was used to explore the dose exposure relationships. Dose proportionality was concluded if the 95% confidence interval (CI) of the linear regression slope was completely contained within the decision interval (1 + ln (0.8)/ln (8)∼1 + ln (1.25)/ln (8)). For urine and fecal data, the accumulative excretion rates of larotinib and M5 were calculated.
Bioanalysis was performed at Frontage Company (Shanghai, China). Validated high-performance LC-MS/MS method was used to quantify the concentrations of larotinib and M5 in plasma, urine and feces samples. Protein precipitation was employed for plasma, urine and feces processing. Plasma larotinib and M5 concentrations were determined using appropriate calibration curves obtained from standards in the range of 0.5–1,000 ng/ml. The interassay precision of the analysis method were 4.2–5.4% for larotinib and 3.9–4.3% for M5. The interassay accuracy of the analysis method were 100.4–103.4% for larotinib and 102.2–102.9% for M5, respectively.
Statistical analyses were performed using SAS software, version 9.2 (SAS Institute Inc., United States). Descriptive statistics were used to summarize continuous variables as cases, means with standard deviations (SDs), medians, quartiles, maximums and minimums. For categorical variables, frequencies and percentages were used. A linear mixed effects model, relating log-transformed Cmax and AUC parameters to log-transformed dose, was used to investigate dose proportionality.

SMILES: COc1cc2ncnc(Nc3ccc(F)c(Cl)c3)c2cc1OCCCN1C[C@@H]2OCCO[C@@H]2C1 [larotinib mesylate]
- linearity of pharmacokinetics (50–400 mg): No clear linear pharmacokinetic characteristic
- time to steady state (continuous once daily administration): 8 days
- AUC(0-t) (50 mg, multiple oral administration, 50 mg larotinib mesylate, steady state, read-out: AUC0-t,ss, mean (min–max)): 3570 ng·h/mL
- AUC(0-inf) (50 mg, multiple oral administration, 50 mg larotinib mesylate, steady state, read-out: AUC0-∞,ss, mean (min–max)): 4920 ng·h/mL
- Cmax (50 mg, multiple oral administration, 50 mg larotinib mesylate, steady state, read-out: Cmax,ss, mean (min–max)): 67.5 ng/mL
- half-life (50 mg, multiple oral administration, 50 mg larotinib mesylate, steady state, read-out: T1/2,ss, mean (min–max) (converted)): 61.2 h
- Tmax (50 mg, multiple oral administration, 50 mg larotinib mesylate, steady state, read-out: Tmax,ss, median (min–max)): 5 h
- Vd/F (50 mg, multiple oral administration, 50 mg larotinib mesylate, steady state, read-out: Vz/F,ss, mean (min–max)): 921 L
- AUC(0-t) (50 mg, single oral administration, 50 mg larotinib mesylate, read-out: AUC0-24, mean (min–max)): 245 ng·h/mL
- AUC(0-t) (50 mg, single oral administration, 50 mg larotinib mesylate, read-out: AUC0-t, mean (min–max)): 635 ng·h/mL
- AUC(0-inf) (50 mg, single oral administration, 50 mg larotinib mesylate, read-out: AUC0-∞, mean (min–max)): 817 ng·h/mL
- Cmax (50 mg, single oral administration, 50 mg larotinib mesylate, read-out: Cmax, mean (min–max)): 17.4 ng/mL
- half-life (50 mg, single oral administration, 50 mg larotinib mesylate, read-out: T1/2, mean (min–max) (converted)): 56.7 h
- Tmax (50 mg, single oral administration, 50 mg larotinib mesylate, read-out: Tmax, median (min–max)): 6 h
- Vd/F (50 mg, single oral administration, 50 mg larotinib mesylate, read-out: Vz/F, mean (min–max)): 5070 L
- AUC(0-t) (100 mg, multiple oral administration, 100 mg larotinib mesylate, steady state, read-out: AUC0-t,ss, mean (min–max)): 4480 ng·h/mL
- AUC(0-inf) (100 mg, multiple oral administration, 100 mg larotinib mesylate, steady state, read-out: AUC0-∞,ss, mean (min–max)): 5200 ng·h/mL
- Cmax (100 mg, multiple oral administration, 100 mg larotinib mesylate, steady state, read-out: Cmax,ss, mean (min–max)): 131 ng/mL
- half-life (100 mg, multiple oral administration, 100 mg larotinib mesylate, steady state, read-out: T1/2,ss, mean (min–max) (converted)): 44.8 h
- Tmax (100 mg, multiple oral administration, 100 mg larotinib mesylate, steady state, read-out: Tmax,ss, median (min–max)): 5 h
- Vd/F (100 mg, multiple oral administration, 100 mg larotinib mesylate, steady state, read-out: Vz/F,ss, mean (min–max)): 1400 L
- AUC(0-t) (100 mg, single oral administration, 100 mg larotinib mesylate, read-out: AUC0-24, mean (min–max)): 653 ng·h/mL
- AUC(0-t) (100 mg, single oral administration, 100 mg larotinib mesylate, read-out: AUC0-t, mean (min–max)): 1240 ng·h/mL
- AUC(0-inf) (100 mg, single oral administration, 100 mg larotinib mesylate, read-out: AUC0-∞, mean (min–max)): 1390 ng·h/mL
- Cmax (100 mg, single oral administration, 100 mg larotinib mesylate, read-out: Cmax, mean (min–max)): 64.1 ng/mL
- half-life (100 mg, single oral administration, 100 mg larotinib mesylate, read-out: T1/2, mean (min–max) (converted)): 43.9 h
- Tmax (100 mg, single oral administration, 100 mg larotinib mesylate, read-out: Tmax, median (min–max)): 5 h
- Vd/F (100 mg, single oral administration, 100 mg larotinib mesylate, read-out: Vz/F, mean (min–max)): 4580 L
- AUC(0-t) (150 mg, multiple oral administration, 150 mg larotinib mesylate, steady state, read-out: AUC0-t,ss, mean (min–max)): 18200 ng·h/mL
- AUC(0-inf) (150 mg, multiple oral administration, 150 mg larotinib mesylate, steady state, read-out: AUC0-∞,ss, mean (min–max)): 24600 ng·h/mL
- Cmax (150 mg, multiple oral administration, 150 mg larotinib mesylate, steady state, read-out: Cmax,ss, mean (min–max)): 371 ng/mL
- half-life (150 mg, multiple oral administration, 150 mg larotinib mesylate, steady state, read-out: T1/2,ss, mean (min–max) (converted)): 61.2 h
- Tmax (150 mg, multiple oral administration, 150 mg larotinib mesylate, steady state, read-out: Tmax,ss, median (min–max)): 5 h
- Vd/F (150 mg, multiple oral administration, 150 mg larotinib mesylate, steady state, read-out: Vz/F,ss, mean (min–max)): 564 L
- AUC(0-t) (150 mg, single oral administration, 150 mg larotinib mesylate, read-out: AUC0-24, mean (min–max)): 1990 ng·h/mL
- AUC(0-t) (150 mg, single oral administration, 150 mg larotinib mesylate, read-out: AUC0-t, mean (min–max)): 4780 ng·h/mL
- AUC(0-inf) (150 mg, single oral administration, 150 mg larotinib mesylate, read-out: AUC0-∞, mean (min–max)): 5660 ng·h/mL
- Cmax (150 mg, single oral administration, 150 mg larotinib mesylate, read-out: Cmax, mean (min–max)): 150 ng/mL
- half-life (150 mg, single oral administration, 150 mg larotinib mesylate, read-out: T1/2, mean (min–max) (converted)): 39.3 h
- Tmax (150 mg, single oral administration, 150 mg larotinib mesylate, read-out: Tmax, median (min–max)): 5 h
- Vd/F (150 mg, single oral administration, 150 mg larotinib mesylate, read-out: Vz/F, mean (min–max)): 1650 L
- AUC(0-t) (220 mg, multiple oral administration, 220 mg larotinib mesylate, steady state, read-out: AUC0-t,ss, mean (min–max)): 30200 ng·h/mL
- AUC(0-inf) (220 mg, multiple oral administration, 220 mg larotinib mesylate, steady state, read-out: AUC0-∞,ss, mean (min–max)): 43600 ng·h/mL
- Cmax (220 mg, multiple oral administration, 220 mg larotinib mesylate, steady state, read-out: Cmax,ss, mean (min–max)): 553 ng/mL
- half-life (220 mg, multiple oral administration, 220 mg larotinib mesylate, steady state, read-out: T1/2,ss, mean (min–max) (converted)): 75.7 h
- Tmax (220 mg, multiple oral administration, 220 mg larotinib mesylate, steady state, read-out: Tmax,ss, median (min–max)): 6 h
- Vd/F (220 mg, multiple oral administration, 220 mg larotinib mesylate, steady state, read-out: Vz/F,ss, mean (min–max)): 553 L
- AUC(0-t) (220 mg, single oral administration, 220 mg larotinib mesylate, read-out: AUC0-24, mean (min–max)): 3100 ng·h/mL
- AUC(0-t) (220 mg, single oral administration, 220 mg larotinib mesylate, read-out: AUC0-t, mean (min–max)): 6360 ng·h/mL
- AUC(0-inf) (220 mg, single oral administration, 220 mg larotinib mesylate, read-out: AUC0-∞, mean (min–max)): 8090 ng·h/mL
- Cmax (220 mg, single oral administration, 220 mg larotinib mesylate, read-out: Cmax, mean (min–max)): 278 ng/mL
- half-life (220 mg, single oral administration, 220 mg larotinib mesylate, read-out: T1/2, mean (min–max) (converted)): 68.2 h
- Tmax (220 mg, single oral administration, 220 mg larotinib mesylate, read-out: Tmax, median (min–max)): 5 h
- Vd/F (220 mg, single oral administration, 220 mg larotinib mesylate, read-out: Vz/F, mean (min–max)): 2720 L
- AUC(0-t) (300 mg, multiple oral administration, 300 mg larotinib mesylate, steady state, read-out: AUC0-t,ss, mean (min–max)): 17900 ng·h/mL
- AUC(0-inf) (300 mg, multiple oral administration, 300 mg larotinib mesylate, steady state, read-out: AUC0-∞,ss, mean (min–max)): 22600 ng·h/mL
- Cmax (300 mg, multiple oral administration, 300 mg larotinib mesylate, steady state, read-out: Cmax,ss, mean (min–max)): 438 ng/mL
- half-life (300 mg, multiple oral administration, 300 mg larotinib mesylate, steady state, read-out: T1/2,ss, mean (min–max) (converted)): 54.3 h
